This is an account of results in ChEMBL document CHEMBL5506025, “Discovery of LLC0424 as a Potent and Selective in Vivo NSD2 PROTAC Degrader” (J Med Chem, 2024).

Activity calls are given as the source filed them. The rule behind the calls is not given here.

Assay [1] addresses T1, Protein cereblon/Histone-lysine N-methyltransferase NSD2 (Homo sapiens) (UniProt O96028+Q96SW2). Kind of assay: PROTAC activity at CRBN/NSD2 in human RPMI 8402 cells assessed as induction of NSD2 degradation at 2 uM measured after 12 to 24 hrs by immunoblot analysis. Conditions: time 12-24 hrs. Format: cell-based.
In assay [2] the target is T1, Protein cereblon/Histone-lysine N-methyltransferase NSD2 (Homo sapiens). Description: PROTAC activity at CRBN/NSD2 in human SEM cells assessed as induction of NSD2 degradation at 0.5 to 2 uM measured after 24 hrs by immunoblot analysis. Format: cell-based. To be noted: dose 0.5-2 µM.
The target in assay [3] is T2, Histone-lysine N-methyltransferase NSD2 (Homo sapiens, UniProt O96028).
T2 sequence (O96028 whole entry): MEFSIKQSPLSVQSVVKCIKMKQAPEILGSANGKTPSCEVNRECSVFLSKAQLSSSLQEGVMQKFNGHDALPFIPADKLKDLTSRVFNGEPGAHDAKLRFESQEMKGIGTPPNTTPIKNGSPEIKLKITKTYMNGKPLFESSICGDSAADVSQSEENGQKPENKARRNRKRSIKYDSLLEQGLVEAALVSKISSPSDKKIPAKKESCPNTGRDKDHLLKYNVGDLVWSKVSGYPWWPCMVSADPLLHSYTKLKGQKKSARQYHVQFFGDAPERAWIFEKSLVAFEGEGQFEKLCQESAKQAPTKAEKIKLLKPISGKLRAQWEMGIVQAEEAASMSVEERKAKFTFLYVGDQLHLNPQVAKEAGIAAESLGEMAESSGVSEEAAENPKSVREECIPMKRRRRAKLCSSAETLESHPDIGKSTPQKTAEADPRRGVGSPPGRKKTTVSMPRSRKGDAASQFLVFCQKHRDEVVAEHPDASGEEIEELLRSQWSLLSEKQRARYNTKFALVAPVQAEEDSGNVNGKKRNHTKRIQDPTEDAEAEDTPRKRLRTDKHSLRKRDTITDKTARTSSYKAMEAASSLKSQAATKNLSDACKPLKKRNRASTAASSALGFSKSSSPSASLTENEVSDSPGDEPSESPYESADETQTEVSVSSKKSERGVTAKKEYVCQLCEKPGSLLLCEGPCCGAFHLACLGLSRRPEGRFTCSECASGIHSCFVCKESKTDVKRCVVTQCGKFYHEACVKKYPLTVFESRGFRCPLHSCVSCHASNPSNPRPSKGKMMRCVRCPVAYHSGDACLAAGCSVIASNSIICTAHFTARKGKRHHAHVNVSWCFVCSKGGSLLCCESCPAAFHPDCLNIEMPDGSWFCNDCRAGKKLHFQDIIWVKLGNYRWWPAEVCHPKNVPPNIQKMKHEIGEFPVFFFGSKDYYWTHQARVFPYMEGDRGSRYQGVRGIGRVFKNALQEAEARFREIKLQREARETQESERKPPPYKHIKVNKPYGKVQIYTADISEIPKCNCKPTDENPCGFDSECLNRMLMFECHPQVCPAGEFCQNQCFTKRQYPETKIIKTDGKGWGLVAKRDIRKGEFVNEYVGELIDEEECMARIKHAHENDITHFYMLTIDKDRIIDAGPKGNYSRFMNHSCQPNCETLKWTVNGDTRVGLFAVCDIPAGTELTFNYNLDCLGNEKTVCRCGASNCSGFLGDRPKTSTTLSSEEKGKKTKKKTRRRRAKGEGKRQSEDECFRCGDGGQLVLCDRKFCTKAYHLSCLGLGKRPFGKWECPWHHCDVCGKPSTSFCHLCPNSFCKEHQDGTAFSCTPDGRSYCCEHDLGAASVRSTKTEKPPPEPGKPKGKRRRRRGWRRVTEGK
Kind of assay: Induction of NSD2 degradation in HEK293FT cells measured after 48 hrs. Format: cell-based.

The target in assay [4] is T1, Protein cereblon/Histone-lysine N-methyltransferase NSD2 (Homo sapiens). Kind of assay: PROTAC activity at CRBN/NSD2 in human SEM cells assessed as induction of NSD2 degradation at 2 uM measured after 12 to 24 hrs by immunoblot analysis. The assay is classed as cell-based. Conditions: time 12-24 hrs. For orientation: A western blot detects proteins with antibodies after separation by electrophoresis.

Assay [5] has the same target. Description: PROTAC activity at CRBN/NSD2 in human RPMI 8402 cells assessed as induction of NSD2 degradation at 0.5 to 2 uM measured after 24 hrs by immunoblot analysis. The assay is classed as cell-based. Conditions: dose 0.5-2 µM.
For assay [6] the target is unchanged. Description: PROTAC activity at CRBN/NSD2 in human SEM cells assessed as induction of NSD2 degradation at 2 uM measured upto 24 hrs by immunoblot analysis. Format: cell-based.
Assay [7] has as its target Protein cereblon/Eukaryotic peptide chain release factor GTP-binding subunit ERF3A (Homo sapiens) (UniProt Q96SW2+P15170). Kind of assay: PROTAC activity at CRBN/GSPT1 in human SEM cells assessed as decrease in GSPT1 level at 2 uM measured upto 24 hrs by immunoblot analysis. The assay is classed as cell-based.
The test system of a further assay is RPMI 8402. Description: Inhibition of colony formation in human RPMI 8402 cells at 2 uM administered every three days for 30 days by iodonitrotetrazolium chloride staining based microscopy analysis. The assay is classed as functional, cell-based. To be noted: time 30.0 day.

T1 sequence (Q96SW2 whole entry, looked up, one chain of several): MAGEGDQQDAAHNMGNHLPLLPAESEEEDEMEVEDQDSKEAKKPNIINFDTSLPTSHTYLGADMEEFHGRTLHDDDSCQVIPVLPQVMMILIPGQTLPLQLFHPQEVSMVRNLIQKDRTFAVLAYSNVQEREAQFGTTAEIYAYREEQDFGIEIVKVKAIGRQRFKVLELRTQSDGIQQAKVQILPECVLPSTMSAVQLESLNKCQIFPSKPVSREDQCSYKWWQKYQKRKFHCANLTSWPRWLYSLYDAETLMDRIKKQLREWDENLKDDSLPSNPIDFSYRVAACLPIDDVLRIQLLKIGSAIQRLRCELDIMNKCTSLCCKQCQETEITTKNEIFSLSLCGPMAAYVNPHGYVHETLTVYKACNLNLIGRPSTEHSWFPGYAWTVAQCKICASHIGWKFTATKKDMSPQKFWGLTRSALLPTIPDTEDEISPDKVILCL
Sequence of Protein cereblon/Eukaryotic peptide chain release factor GTP-binding subunit ERF3A (Homo sapiens) (P15170 whole entry, looked up): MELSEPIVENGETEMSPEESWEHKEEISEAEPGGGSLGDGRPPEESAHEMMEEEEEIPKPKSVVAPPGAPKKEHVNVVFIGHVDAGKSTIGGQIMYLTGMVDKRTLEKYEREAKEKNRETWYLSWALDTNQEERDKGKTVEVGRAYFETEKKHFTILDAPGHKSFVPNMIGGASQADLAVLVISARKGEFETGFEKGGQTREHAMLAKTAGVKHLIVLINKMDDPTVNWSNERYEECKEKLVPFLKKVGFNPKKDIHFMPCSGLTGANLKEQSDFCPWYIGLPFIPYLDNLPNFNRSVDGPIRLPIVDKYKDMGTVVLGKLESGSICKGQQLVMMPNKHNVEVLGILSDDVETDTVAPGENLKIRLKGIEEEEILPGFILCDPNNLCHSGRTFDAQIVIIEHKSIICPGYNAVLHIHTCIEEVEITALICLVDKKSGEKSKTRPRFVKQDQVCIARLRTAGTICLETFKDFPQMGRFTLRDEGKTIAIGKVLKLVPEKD
Sequence of Protein cereblon/Eukaryotic peptide chain release factor GTP-binding subunit ERF3A (Homo sapiens) (Q96SW2 whole entry, looked up): as the sequence (Q96SW2 whole entry, looked up, one chain of several) above

For the compound `O=C(CNc1cccc2c1C(=O)N(C1CCC(=O)NC1=O)C2=O)NCCCOc1ccc(NC(=O)c2ccc(CN(C(=O)c3ccc4c(c3)OCC(=O)N4)C3CC3)cc2)nc1` (stereo unspecified), the result in assay [1], in assay [2], in assay [4] and in assay [5] was inactive. Further, the 50% degradation concentration (DC50) in assay [3] turned out to be 5.2 µM.
As for `CC(C)N(Cc1ccc(C(=O)Nc2ccc(C(=O)NC3CCN(c4ccc5c(c4)C(=O)N(C4CCC(=O)NC4=O)C5=O)CC3)cc2)cc1)C(=O)c1ccc2c(c1)OCC(=O)N2` (stereo unspecified), the result in assay [6] was inactive. The result in assay [7] was Active.
As to `CN1C(=O)CCC(N2C(=O)c3ccc(N4CCC(NC(=O)c5ccc(NC(=O)c6ccc(CN(C(=O)c7ccc8c(c7)OCC(=O)N8)C7CC7)cc6)cc5)CC4)cc3C2=O)C1=O` (stereo unspecified), the inhibition result in the assay on RPMI 8402 is “inactive”. In addition, the outcome in assay [1], in assay [2], in assay [4] and in assay [5] was inactive.
Consider `NCCCCCCNC(=O)c1ccc(NC(=O)c2ccc(CN(C(=O)c3ccc4c(c3)OCC(=O)N4)C3CC3)cc2)cc1`, for which the outcome in assay [1], in assay [2], in assay [4] and in assay [5] was inactive.

The term DC50 denotes the concentration giving 50% degradation.
